The values below come from patent US9029391B2 (priority 2011, dated 2015).

Structures can show the parent of a compound that is named as a salt. Where two headings read alike, the source gives them in different places.

The subject of the experiment is HIV. In words: MT4 Assay (anti-HIV activity). The format is cell-based. Summed up: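 IC50 values were fitted to 10-point dose-response series (3-4-fold dilutions, range >1000-fold), normalized to no-compound control. CellTiter-Glo read-out was taken after 96 hours in HTLV-1-transformed MT-4 cells. Cytotoxicity was measured in parallel under identical conditions.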

[1] abbreviates: Human immunodeficiency virus 1, 96 h, read-out: HIV MT4 Assay IC50, HTLV-1 transformed cell line MT-4, cell titer glo, 10 point dose response curve.

The IC50 is the point on the concentration scale where inhibition reaches its midpoint. Regarding `Cc1c(-c2c(C(OC(C)(C)C)C(=O)O)n(C)c(=O)c3cc(OCc4ccc(S(C)(=O)=O)cc4)ccc23)ccc2c1CCCO2` (stereo not drawn) [Example 128, 2-(tert-butoxy)-2-{7-[(4-methanesulfonylphenyl)-methoxy]-2-methyl-4-(5-methyl-3,4-dihydro-2H-1-benzopyran-6-yl)-1-oxo-1,2-dihydroisoquinolin-3-yl}acetic acid], the half-maximal inhibitory concentration (IC50) under setting [1] is 0.38 µM.

`Cc1c(-c2c([C@H](OC(C)(C)C)C(=O)O)n(C)c(=O)c3ccccc23)cc(F)c2c1CCCO2` [Example 162, (2S)-2-(tert-butoxy)-2-[4-(8-fluoro-5-methyl-3,4-dihydro-2H-1-benzopyran-6-yl)-2-methyl-1-oxo-1,2-dihydroisoquinolin-3-yl]acetic acid]: the IC50 (read-out: HIV MT4 Assay IC50, HTLV-1 transformed cell line MT-4, 96 hours, cell titer glo, 10 point dose response curve) came to 4.19 µM.

In the case of `Cc1c(-c2c([C@H](OC(C)(C)C)C(=O)NS(C)(=O)=O)n(C)c(=O)c3ccccc23)cc(F)c2c1CCCO2` (atropisomer, axis not shown; (M)) [Example 215, (2S)(M)-2-[(1,1-dimethylethyl)oxy]-2-[4-(8-fluoro-5-methyl-3,4-dihydro-2H-chromen-6-yl)-2-methyl-1-oxo-1,2-dihydro-3-isoquinolinyl]-N-(methylsulfonyl)ethanamide], under setting [1], the IC50 is 11.1 µM.

With `Cc1c(-c2c([C@H](OC(C)(C)C)C(=O)O)n(C)c(=O)c3cc(CN4CCCCC4)ccc23)cc(F)c2c1CCCO2` (atropisomer, axis not shown; (M)) [Example 190, (S)(M)-2-(tert-butoxy)-2-(4-(8-fluoro-5-methylchroman-6-yl)-2-methyl-1-oxo-7-(piperidin-1-ylmethyl)-1,2-dihydroisoquinolin-3-yl)acetic acid, Trifluoroacetic acid salt], the IC50 under setting [1] amounted to 0.32 µM.

Take `Cc1c(-c2c(C(OC(C)(C)C)C(=O)O)n(C)c(=O)c3cc(C(F)(F)F)ccc23)ccc2c1CCCO2` (stereo not drawn) [Example 127, 2-(tert-butoxy)-2-[2-methyl-4-(5-methyl-3,4-dihydro-2H-1-benzopyran-6-yl)-1-oxo-7-(trifluoromethyl)-1,2-dihydroisoquinolin-3-yl]acetic acid]: the half-inhibitory concentration (IC50) under setting [1] came to 1.14 µM.

As for `Cn1c(C(OC(C)(C)C)C(=O)O)c(-c2ccc(OC(F)(F)F)cc2)c2ccccc2c1=O` (stereo not drawn) [Example 5, 2-(tert-butoxy)-2-{2-methyl-1-oxo-4-[4-(trifluoromethoxy)phenyl]-1,2-dihydroisoquinolin-3-yl}acetic acid], the IC50 under setting [1] was 41.7 µM.

With `Cc1c(-c2c(C(OC(C)(C)C)C(=O)O)n(C)c(=O)c3cc(OS(=O)(=O)N(C)C)ccc23)ccc2c1CCCO2` (stereo not drawn) [Example 123, 2-(tert-butoxy)-2-{7-[(dimethylsulfamoyl)oxy]-2-methyl-4-(5-methyl-3,4-dihydro-2H-1-benzopyran-6-yl)-1-oxo-1,2-dihydroisoquinolin-3-yl}acetic acid], the IC50 under setting [1] was determined as 1.22 µM.

Regarding `Cc1c(-c2c(C(OC(C)(C)C)C(=O)O)n(C)c(=O)c3cc(F)ccc23)cc(F)c2c1CCCO2` (stereo not drawn) [Example 92, 2-(tert-butoxy)-2-[7-fluoro-4-(8-fluoro-5-methyl-3,4-dihydro-2H-1-benzopyran-6-yl)-2-methyl-1-oxo-1,2-dihydroisoquinolin-3-yl]acetic acid], under setting [1], the IC50 is 0.14 µM.

Regarding `Cc1cccc(-c2c(C(OC(C)(C)C)C(=O)O)n(C)c(=O)c3ccccc23)c1` (stereo not drawn) [Example 18, 2-(tert-butoxy)-2-[2-methyl-4-(3-methylphenyl)-1-oxo-1,2-dihydroisoquinolin-3-yl]acetic acid], the IC50 under setting [1] was 3.58 µM.

On to `Cc1c(-c2c(C(OC(C)(C)C)C(=O)O)n(C)c(=O)c3cc(Cl)ccc23)ccc2c1CCCO2` (stereo not drawn) [Example 79, 2-(tert-butoxy)-2-[7-chloro-2-methyl-4-(5-methyl-3,4-dihydro-2H-1-benzopyran-6-yl)-1-oxo-1,2-dihydroisoquinolin-3-yl]acetic acid], for which, under setting [1], the IC50 came out at 0.2 µM.

For `Cc1c(-c2c(C(OC(C)(C)C)C(=O)O)n(C)c(=O)c3cc(OCc4ccc(F)cc4F)ccc23)ccc2c1CCCO2` (stereo not drawn) [Example 134, 2-(tert-butoxy)-2-{7-[(2,4-difluorophenyl)methoxy]-2-methyl-4-(5-methyl-3,4-dihydro-2H-1-benzopyran-6-yl)-1-oxo-1,2-dihydroisoquinolin-3-yl}acetic acid], under setting [1], the IC50 was determined as 0.07 µM.

In the case of `Cc1ccc2c(-c3ccc4c(c3C)CCCO4)c(C(OC(C)(C)C)C(=O)O)n(C)c(=O)c2c1` (stereo not drawn) [Example 67, 2-(tert-butoxy)-2-[2,7-dimethyl-4-(5-methyl-3,4-dihydro-2H-1-benzopyran-6-yl)-1-oxo-1,2-dihydroisoquinolin-3-yl]acetic acid], the IC50 under setting [1] was 0.12 µM.

As to `Cn1c(C(OC(C)(C)C)C(=O)O)c(-c2ccc3c(c2)CCC(C)(C)O3)c2ccccc2c1=O` (stereo not drawn) [Example 78, 2-(tert-butoxy)-2-[4-(2,2-dimethyl-3,4-dihydro-2H-1-benzopyran-6-yl)-2-methyl-1-oxo-1,2-dihydroisoquinolin-3-yl]acetic acid], the 50% inhibitory concentration (IC50) under setting [1] was determined as 41.6 µM.

For the compound `Cn1c(C(OC(C)(C)C)C(=O)O)c(-c2cc(Cl)ccc2Cl)c2ccccc2c1=O` (stereo not drawn) [Example 14, 2-(tert-butoxy)-2-[4-(2,5-dichlorophenyl)-2-methyl-1-oxo-1,2-dihydroisoquinolin-3-yl]acetic acid], the IC50 under setting [1] came to 2.57 µM.

For `COc1cc(-c2c(C(OC(C)(C)C)C(=O)O)n(C)c(=O)c3ccccc23)ccc1C` (stereo not drawn) [Example 52, 2-(tert-butoxy)-2-[4-(3-methoxy-4-methylphenyl)-2-methyl-1-oxo-1,2-dihydroisoquinolin-3-yl]acetic acid], under setting [1], the IC50 is 3.12 µM.

With `Cc1c(-c2c(C(OC(C)(C)C)C(=O)O)n(C)c(=O)c3ccccc23)ccc2c1CCCO2` (stereo not drawn) [Example 19, 2-(tert-butoxy)-2-[2-methyl-4-(5-methyl-3,4-dihydro-2H-1-benzopyran-6-yl)-1-oxo-1,2-dihydroisoquinolin-3-yl]acetic acid], the half-maximal inhibitory concentration (IC50) under setting [1] stood at 0.41 µM.

Take `COc1ccc(-c2c(C(OC(C)(C)C)C(=O)O)n(C)c(=O)c3ccccc23)c(C)c1` (stereo not drawn) [Example 31, 2-(tert-butoxy)-2-[4-(4-methoxy-2-methylphenyl)-2-methyl-1-oxo-1,2-dihydroisoquinolin-3-yl]acetic acid]: the IC50 under setting [1] is 1.72 µM.

As to `Cc1c(-c2c([C@H](OC(C)(C)C)C(=O)O)n(C)c(=O)c3cc(-c4cccnc4)ccc23)cc(F)c2c1CCCO2` (atropisomer, axis not shown; (M)) [Example 206, (2S)(M)-[(1,1-dimethylethyl)oxy][4-(8-fluoro-5-methyl-3,4-dihydro-2H-chromen-6-yl)-2-methyl-1-oxo-7-(3-pyridinyl)-1,2-dihydro-3-isoquinolinyl]ethanoic acid], the IC50 under setting [1] was 0.16 µM.

As for `Cc1c(-c2c([C@H](OC(C)(C)C)C(=O)O)n(C)c(=O)c3cc(OCc4ccc(F)c(F)c4)ccc23)ccc2c1CCCO2` [Example 108, (2S)-2-(tert-butoxy)-2-{7-[(3,4-difluorophenyl)methoxy]-2-methyl-4-(5-methyl-3,4-dihydro-2H-1-benzopyran-6-yl)-1-oxo-1,2-dihydroisoquinolin-3-yl}acetic acid], the IC50 under setting [1] was 0.03 µM.

Turning to `COc1cccc(-c2ccc3c(-c4cc(F)c5c(c4C)CCCO5)c([C@H](OC(C)(C)C)C(=O)O)n(C)c(=O)c3c2)n1` (atropisomer, axis not shown; (M)) [Example 208, (2S)(M)-[(1,1-dimethylethyl)oxy]{4-(8-fluoro-5-methyl-3,4-dihydro-2H-chromen-6-yl)-2-methyl-7-[6-(methyloxy)-2-pyridinyl]-1-oxo-1,2-dihydro-3-isoquinolinyl}ethanoic acid], the IC50 under setting [1] is 0.04 µM.

Consider `Cn1c(C(OC(C)(C)C)C(=O)O)c(-c2cccc3ccccc23)c2ccccc2c1=O` (stereo not drawn) [Example 29, 2-(tert-butoxy)-2-[2-methyl-4-(naphthalen-1-yl)-1-oxo-1,2-dihydroisoquinolin-3-yl]acetic acid], for which the half-maximal inhibitory concentration (IC50) under setting [1] was found to be 8.3 µM.

`Cc1ccc2c(-c3ccc(C)c(C)c3)c(C(OC(C)(C)C)C(=O)O)n(C)c(=O)c2c1` (stereo not drawn) [Example 60, 2-(tert-butoxy)-2-[4-(3,4-dimethylphenyl)-2,7-dimethyl-1-oxo-1,2-dihydroisoquinolin-3-yl]acetic acid]: the IC50 under setting [1] came out at 1.29 µM.

As for `Cc1ccc(-c2c(C(OC(C)(C)C)C(=O)O)n(C)c(=O)c3cc(CC(C)C)ccc23)cc1C` (stereo not drawn) [Example 172, [(1,1-dimethylethyl)oxy][4-(3,4-dimethylphenyl)-2-methyl-7-(2-methylpropyl)-1-oxo-1,2-dihydro-3-isoquinolinyl]acetic acid], under setting [1], the IC50 stood at 0.27 µM.

As for `CC(=O)N1CCc2ccc(-c3c(C(OC(C)(C)C)C(=O)O)n(C)c(=O)c4ccccc34)cc2C1` (stereo not drawn) [Example 80, 2-[4-(2-acetyl-1,2,3,4-tetrahydroisoquinolin-7-yl)-2-methyl-1-oxo-1,2-dihydroisoquinolin-3-yl]-2-(tert-butoxy)acetic acid], the IC50 under setting [1] was determined as 50 µM.

On to `CCOc1ccc(-c2c(C(OC(C)(C)C)C(=O)O)n(C)c(=O)c3ccccc23)cc1` (stereo not drawn) [Example 42, 2-(tert-butoxy)-2-[4-(4-ethoxyphenyl)-2-methyl-1-oxo-1,2-dihydroisoquinolin-3-yl]acetic acid], for which, under setting [1], the 50% inhibitory concentration (IC50) is 33.3 µM.

As for `Cc1c(-c2c(C(OC(C)(C)C)C(=O)O)n(C)c(=O)c3c(F)cccc23)cc(F)c2c1CCCO2` (stereo not drawn) [Example 90, 2-(tert-butoxy)-2-[8-fluoro-4-(8-fluoro-5-methyl-3,4-dihydro-2H-1-benzopyran-6-yl)-2-methyl-1-oxo-1,2-dihydroisoquinolin-3-yl]acetic acid], under setting [1], the IC50 was found to be 0.51 µM.

Turning to `Cc1ccc(-c2c(C(OC(C)(C)C)C(=O)O)n(C)c(=O)c3cc(-c4ccoc4C)ccc23)cc1C` (stereo not drawn) [Example 193, [(1,1-dimethylethyl)oxy][4-(3,4-dimethylphenyl)-2-methyl-7-(2-methyl-3-furanyl)-1-oxo-1,2-dihydro-3-isoquinolinyl]acetic acid], the IC50 under setting [1] was determined as 1.34 µM.
